Values of other authors, collected in patent publication US7705017B2, “Compounds for treatment of neurodegenerative diseases” (En Vivo Pharmaceuticals, Inc., priority 2004, dated 2010).

Tests used:
[1] = tested on: Huntington's disease in a mouse model; conditions: orally administered
[2] = tested on: Histone Deacetylase-Like Protein (HDLP); conditions: HDLP deacetylates histones in vitro

inhibition of HDAC-like protein (HDLP) [2] | Compound | motor impairment in mice [1]
 | O=C(CCCCCCC(=O)Nc1ccccc1)NO [SAHA, suberoylanilide hydroxamic acid] | dramatically improved the motor impairment
inhibited | CC(/C=C/C(=O)NO)=C\[C@@H](C)C(=O)c1ccc(N(C)C)cc1 [TSA, trichostatin A] | 
